Experimental findings from US4284621A, “Agents for protection against light” (Bayer Aktiengesellschaft, priority 1978, dated 1981) are described below.

Series [1] is described as follows: UV absorption spectral data (wavelength λmax, molar extinction ε, specific extinction E1^1). The format is physicochemical. The settings on record: Table II; for Molar extinction ε: in M-1cm-1.
The nature of the next series: 14 day LD 50 (tolerance). It counts as in vivo.
Series [2] can be described thus: Solubilities at room temperature (20-25° C.) in groundnut oil and groundnut oil/liquid paraffin 1:9. The format is physicochemical.

As to “4-methoxy-benzylidene-cyanoacetic acid isononyl ester [iso-Nonyl]”, in series [1], the “Specific extinction E1^1” value is on record as 860, the “Wavelength λmax (nm)” value stood at 341 nm and the “Molar extinction ε” value is listed as 28,400. In addition, the “14 day LD 50” value in “14 day LD 50 (tolerance)” was found to be 20.76 mL/kg.

For the compound `CCCCCCOC(=O)C(C#N)=Cc1ccc(OC)cc1` [n-Hexyl, 4-methoxy-benzylidene-cyanoacetic acid n-hexyl ester], in series [1], the “Specific extinction E1^1” value stood at 990, the “Wavelength λmax (nm)” value was found to be 342 nm and the “Molar extinction ε” value is given as 28,500. Also, the “Solubility at room temperature in groundnut oil/liquid paraffin 1:9 (%)” value in series [2] was 90%. Besides, in “14 day LD 50 (tolerance)”, the “14 day LD 50” value worked out at 5.71 mL/kg.

For the compound `CCCCOC(=O)C(C#N)=Cc1ccc(OC)cc1` [n-Butyl], in series [1], the “Specific extinction E1^1” value is 1,090, the “Wavelength λmax (nm)” value was 342 nm and the “Molar extinction ε” value is reported as 28,300. Also, in series [2] (groundnut oil), the “Solubility at room temperature in groundnut oil (%)” value stood at 17%. Also, in series [2], the “Solubility at room temperature in groundnut oil/liquid paraffin 1:9 (%)” value turned out to be 3%.
